In patent US4727064A, “Pharmaceutical preparations containing cyclodextrin derivatives” (priority 1985, dated 1988):
≈ marks a conversion by molar mass, not a printed value. Counter-ions that a name gives are not always drawn. Like-named read-outs stand apart in the source and are kept apart here.

Legend:
[1] = Solubility of drugs in aqueous cyclodextrin solubilizer solution (saturation by stirring with excess drug, room temperature, about 24 hours; spectrophotometric); settings: for solubility: water
Procedure: The solutions of solubilizer in water were saturated by stirring with excess of drug at room temperature for about 24 hours. The resulting suspensions were clarified either by filtration through a sintered glass filter or by centrifugation. Concentration of hormones in clarified solutions was measured spectrophotometrically. In these experiments drugs were solubilized with cyclodextrin derivatives with constant degrees of substitution and which are given in the footnote to Table 1.

[2] = Table 1, water, cited from earlier work
[3] = hydroxypropyl-β-cyclodextrin in water, Solubility in solubilizer solution, Table 1, hydroxypropyl-β-cyclodextrin in water, degree of substitution 6-7
[4] = hydroxypropyl-β-cyclodextrin in water, Solubility in solubilizer solution
[5] = data from K. Uekama, Pharmacology International, 61-65 (1985)
[6] = data from J. Brotherton, Sex Hormone Pharmacology (1976), p. 36
[7] = 50% aqueous carboxamido-β-cyclodextrin, Solubilities of steroids in 50% aqueous solutions of substituted cyclodextrins, Table 3, carboxamido-β-cyclodextrin
[8] = 50% aqueous carboxymethyl-β-cyclodextrin, Solubilities of steroids in 50% aqueous solutions of substituted cyclodextrins, Table 3, carboxymethyl-β-cyclodextrin
[9] = 50% aqueous diethylaminoethyl-β-cyclodextrin, Solubilities of steroids in 50% aqueous solutions of substituted cyclodextrins, Table 3, diethylaminoethyl-β-cyclodextrin
[10] = 50% aqueous hydroxypropyl-beta-cyclodextrin, Solubilities of steroids in 50% aqueous solutions of hydroxypropyl-β-cyclodextrin, Table 2, d.s. 4.7
[11] = 50% aqueous hydroxypropyl-beta-cyclodextrin, Solubilities of steroids in 50% aqueous solutions of hydroxypropyl-β-cyclodextrin, Table 2, d.s. 5.7
[12] = 50% aqueous hydroxypropyl-beta-cyclodextrin, Solubilities of steroids in 50% aqueous solutions of hydroxypropyl-β-cyclodextrin, Table 2, d.s. 7.0
[13] = 50% aqueous hydroxypropyl-beta-cyclodextrin, Solubilities of steroids in 50% aqueous solutions of hydroxypropyl-β-cyclodextrin, Table 2, d.s. 14
[14] = hydroxypropyl-β-cyclodextrin in water, 24 h

SMILES	solubility at 24 h [1, 3] [mg/mL]	solubility [1] [mg/mL]	solubility at 24 h [1, 4] [mg/mL]	also measured
C[C@]12CCC(=O)C=C1CC[C@@H]1[C@@H]2CC[C@@]2(C)[C@H]1CC[C@]2(C)O [17-methyltestosterone]	39 (≈ 129 mM)	< 0.17	–	–
CC(=O)Nc1ccc(O)cc1 [acetamidophen]	67 (≈ 443 mM)	11 (≈ 72.8 mM)	–	–
Nc1nc2c(ncn2COCCO)c(=O)[nH]1 [acyclovir]	–	–	2.5 (≈ 11.1 mM)	Solubility in water [1]: insoluble
CN1CCc2cccc3c2[C@H]1Cc1ccc(O)c(O)c1-3 [apomorphine]	–	20 (≈ 74.8 mM)	116 (≈ 434 mM)	–
Cc1cc(C(C)(C)C)c(O)c(C(C)(C)C)c1 [butylated hydroxytoluene]	3 (≈ 13.6 mM)	–	–	Solubility in water ([1]; Table 1, water): insoluble; solubility at 24 h ([1]; hydroxypropyl-α-cyclodextrin in water, Solubility in solubilizer solution, Table 1, hydroxypropyl-α-cyclodextrin in water, degree of substitution 6-7): 0.3 mg/mL (≈ 1.36 mM); solubility at 24 h ([1]; hydroxypropyl-γ-cyclodextrin in water, Solubility in solubilizer solution, Table 1, hydroxypropyl-γ-cyclodextrin in water, degree of substitution 6-7): 0.2 mg/mL (≈ 0.908 mM)
NS(=O)(=O)c1cc(C2(O)NC(=O)c3ccccc32)ccc1Cl (stereo not shown) [chlorthalidone]	–	0.12 (≈ 0.354 mM)	10.5 (≈ 31 mM)	–
C=C1CC[C@H](O)C/C1=C/C=C1\CCC[C@]2(C)[C@@H]([C@H](C)CCCC(C)C)CC[C@@H]12 [cholecalciferol]	10 (≈ 26 mM)	< 0.23	–	–
Cl.Clc1cccc(Cl)c1NC1=NCCN1 [cloridine hydrochloride]	–	–	–	Solubility in solubilizer solution ([1]; Table 1, hydroxypropyl-β-cyclodextrin in water, degree of substitution 6-7, 1440 min): 83.0 mg/mL
C[C@@H]1C[C@H]2[C@@H]3CCC4=CC(=O)C=C[C@]4(C)[C@@]3(F)[C@@H](O)C[C@]2(C)[C@@]1(O)C(=O)CO [dexamethasone]	24 (≈ 61.2 mM)	0.1 (≈ 0.255 mM)	–	–
C[C@H]1O[C@@H](O[C@H]2[C@@H](O)C[C@H](O[C@H]3[C@@H](O)C[C@H](O[C@H]4CC[C@@]5(C)[C@H](CC[C@@H]6[C@@H]5C[C@@H](O)[C@]5(C)[C@@H](C7=CC(=O)OC7)CC[C@]65O)C4)O[C@@H]3C)O[C@@H]2C)C[C@H](O)[C@@H]1O [digoxin]	45 (≈ 57.6 mM)	–	–	Solubility in water [2, 5]: 0.07 mg/mL (≈ 0.0896 mM)
O=C1NC(=O)C(c2ccccc2)(c2ccccc2)N1 [diphenylhydantoin]	1.7 (≈ 6.74 mM)	–	–	Solubility in water [2, 5]: 0.03 mg/mL (≈ 0.119 mM)
C[C@]12CC[C@@H]3c4ccc(O)cc4CC[C@H]3[C@@H]1C[C@@H](O)[C@@H]2O [estriol]	41 (≈ 142 mM)	< 1.3	–	–
C#C[C@]1(O)CC[C@H]2[C@@H]3CCc4cc(OC)ccc4[C@H]3CC[C@@]21C [ethinylestradiol-3-methyl ether]	–	< 1.5	27 (≈ 87 mM)	–
C#C[C@]1(O)CC[C@H]2[C@@H]3CCC4=CC(=O)CC[C@]4(C)[C@H]3CC[C@@]21C [ethisterone]	0.5 (≈ 1.6 mM)	< 0.2	–	–
NS(=O)(=O)c1cc2c(cc1C(F)(F)F)NCNS2(=O)=O [hydroflumethiazide]	–	0.3 (≈ 0.906 mM)	9.3 (≈ 28.1 mM)	–
COc1ccc2c(c1)c(CC(=O)O)c(C)n2C(=O)c1ccc(Cl)cc1 [indomethacin]	4.2 (≈ 11.7 mM)	–	–	Solubility in water [2, 5]: 0.02 mg/mL (≈ 0.0559 mM)
CC(C)NNC(=O)c1ccncc1 [iproniazid phosphate]	–	30	95	–
O=[N+]([O-])OCC(CO[N+](=O)[O-])O[N+](=O)[O-] [nitroglycerin]	10.4 (≈ 45.8 mM)	1.25 (≈ 5.5 mM)	–	–
CC1OC(OC2CC(O)C3(CO)C4C(O)CC5(C)C(C6=CC(=O)OC6)CCC5(O)C4CCC3(O)C2)C(O)C(O)C1O (stereo not shown) [oubain]	80 (≈ 137 mM)	13 (≈ 22.2 mM)	–	–
CC(=O)[C@H]1CC[C@H]2[C@@H]3CCC4=CC(=O)CC[C@]4(C)[C@H]3CC[C@]12C [progesterone]	34 (≈ 108 mM)	–	–	Solubility in water [2, 6]: 0.015 mg/mL (≈ 0.0477 mM); solubility at 24 h [1, 7]: 38 mg/mL (≈ 121 mM); solubility at 24 h [1, 8]: 14 mg/mL (≈ 44.5 mM); solubility at 24 h [1, 9]: 18 mg/mL (≈ 57.2 mM); solubility at 24 h [1, 10]: 30 mg/mL (≈ 95.4 mM); solubility at 24 h [1, 11]: 44 mg/mL (≈ 140 mM); solubility at 24 h [1, 12]: 35 mg/mL (≈ 111 mM); solubility at 24 h [1, 13]: 23 mg/mL (≈ 73.1 mM)
CC1=C(/C=C/C(C)=C/C=C/C(C)=C/C=O)C(C)(C)CCC1 [retinal]	–	< 0.07	2.6 (≈ 9.14 mM)	–
CC1=C(/C=C/C(C)=C/C=C/C(C)=C/C(=O)O)C(C)(C)CCC1 [retinoic acid, all trans]	–	< 0.07	–	Solubility in solubilizer solution [1, 14]: 0.8 mg/mL (≈ 2.66 mM)
CC1=C(/C=C/C(C)=C/C=C/C(C)=C/C(=O)O)C(C)(C)CCC1 [retinoic acid, choline salt of all trans]	–	–	–	Solubility in solubilizer solution [1, 14]: 18.8 mg/mL
CC1=C(/C=C/C(C)=C/C=C/C(C)=C/C(=O)O)C(C)(C)CCC1 [retinoic acid, ethanolamine salt of all trans]	–	–	–	solubility at 24 h ([1]; 40% hydroxypropyl-β-cyclodextrin, 1% ethanolamine, Solubility in solubilizer solution): 28.4 mg/mL
CC1=C(/C=C/C(C)=C/C=C/C(C)=C/C(=O)O)C(C)(C)CCC1 [retinoic acid, sodium salt of all trans]	–	–	–	Solubility in solubilizer solution [1, 14]: 1.6 mg/mL
CC1=C(/C=C/C(C)=C/C=C/C(C)=C/CO)C(C)(C)CCC1 [retinol]	–	< 0.1	5.5 (≈ 19.2 mM)	–
CC(=O)S[C@@H]1CC2=CC(=O)CC[C@]2(C)[C@H]2CC[C@@]3(C)[C@@H](CC[C@@]34CCC(=O)O4)[C@H]12 [spironolactone]	–	–	42 (≈ 101 mM)	Solubility in water [2, 5]: 0.03 mg/mL (≈ 0.072 mM)
C[C@]12CC[C@H]3[C@@H](CCC4=CC(=O)CC[C@@]43C)[C@@H]1CC[C@@H]2O [testosterone]	38 (≈ 132 mM)	–	–	Solubility in water [2, 6]: 0.026 mg/mL (≈ 0.0901 mM); solubility at 24 h [1, 7]: 24 mg/mL (≈ 83.2 mM); solubility at 24 h [1, 8]: 24 mg/mL (≈ 83.2 mM); solubility at 24 h [1, 9]: 9 mg/mL (≈ 31.2 mM); solubility at 24 h [1, 10]: 56 mg/mL (≈ 194 mM); solubility at 24 h [1, 11]: 62 mg/mL (≈ 215 mM); solubility at 24 h [1, 12]: 40 mg/mL (≈ 139 mM); solubility at 24 h [1, 13]: 23 mg/mL (≈ 79.7 mM)
Cn1c(=O)c2[nH]cnc2n(C)c1=O [theophylline]	11 (≈ 61.1 mM)	8.3 (≈ 46.1 mM)	–	–
